Source: US20050148647A1, “Hemodialysis solutions and uses thereof” (priority 2003, published 2005)

Assay: in vivo
Details: dog, plasma
Procedure: (§1) Supplementation with casein hydrolysate was evaluated in a dog dialysis model. Two dogs were dialyzed: a control animal underwent four hours of standard hemodialysis. The second animal was dialyzed with dialysate enriched with vitamin-free casein acid hydrolysate under otherwise identical conditions. The dogs were anesthetized and ventilated; venous access for dialysis was achieved via two peripheral venous lines, right femoral and left external jugular. A routine, bicarbonate-based dialysis solution, Centrisol™, was used with both animals and diluted with filtered water by the hemodialysis machine to the appropriate concentration. […] The animals were dialyzed for four hours with a blood flow rate of 300 ml/min and a dialysate flow rate of 500 ml/min. Plasma and dialysate samples were from both animals at t=0 and t=4 hours were analyzed for amino acid content. Additional samples were taken from the serum post-filter and from the dialysate immediately pre-filter.

Compound | concentration at 0 h [µM] | concentration at 4 h [µM]
C[C@H](N)C(=O)O [alanine] | 658 | 712
N=C(N)NCCC[C@H](N)C(=O)O [arginine] | 132 | 148
N[C@@H](CC(=O)O)C(=O)O [aspartate] | 2 | 12
N[C@@H](CS)C(=O)O [cysteine] | 8 | 12
NCC(=O)O [glycine] | 306 | 260
N[C@@H](Cc1c[nH]cn1)C(=O)O [histidine] | 68 | 88
CC[C@H](C)[C@H](N)C(=O)O [isoleucine] | 46 | 138
CC(C)C[C@H](N)C(=O)O [leucine] | 126 | 290
NCCCC[C@H](N)C(=O)O [lysine] | 98 | 198
CSCC[C@H](N)C(=O)O [methionine] | 44 | 86
N[C@@H](Cc1ccccc1)C(=O)O [phenylalanine] | 34 | 82
O=C(O)[C@@H]1CCCN1 [proline] | 336 | 428
N[C@@H](CO)C(=O)O [serine] | 154 | 154
C[C@@H](O)[C@H](N)C(=O)O [threonine] | 108 | 128
N[C@@H](Cc1c[nH]c2ccccc12)C(=O)O [tryptophan] | 52 | 52
N[C@@H](Cc1ccc(O)cc1)C(=O)O [tyrosine] | 28 | 48
CC(C)[C@H](N)C(=O)O [valine] | 118 | 242

Assay: dog dialysis model: hemodialysis with casein hydrolysate-enriched dialysate, plasma amino acid content;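 further: anesthetized dogs on 4 h hemodialysis with bicarbonate dialysate, one enriched with vitamin-free casein acid hydrolysate, control animal on standard dialysis, plasma amino acids measured at 0 and 4 h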
Details: casein group, over the course of dialysis
Procedure: as §1

Compound | direction of change of plasma concentration of the amino acid (in words)
NCC(=O)O [glycine] | decreased
N[C@@H](CO)C(=O)O [serine] | remained the same concentration
